The source of these data is US20110224221A1, “HEMATOPOIETIC PROTECTION AGAINST IONIZING RADIATION USING SELECTIVE CYCLIN-DEPENDENT KINASE 4/6 INHIBITORS” (priority 2008, published 2011).

Data set [1] relates to telomerized human diploid fibroblasts (tHDF). Description: Cell cycle analysis (BrdU incorporation in vitro), tHDF. Format: cell-based. The note with it: 24 hours exposure. The text has this: FIG. 3A is a set of graphs showing the dose-response curves for cycle analysis in both cyclin-dependent kinase 4/6 (CKD4/6)-dependent cells (human telomerized human diploid fibroblasts (tHDFs, left-hand column of graphs) and a CDK4/6-dependent human melanoma cell line (WM2664, middle column of graphs)) and in CDK4/6-independent cells (a human retinoblastoma tumor suppressor protein (RB)-null melanoma cell line (A2058), right-hand column of graphs). […] The percentage of cells in the G1 phase is indicated by the data shown in the open triangles, while the percentage of cells in the S phase is shown by the data in the shaded circles and the percentage of cells in the G2/M phase is indicated by the data in the double “x”s.
Cell Lines: KPTR1, KPTR4. and KPTR5 were derived from tumor-bearing TyrRAS+Ink4a/Arf−/− by standard procedures and cultured in RPMI+10% fetal bovine serum (FBS). Telomerized HDFs (tHDFs, also known as HS68) were cultured in DMEM+10% FBS with penicillin and streptomycin. The same conditions were used for A2058 and WM2664, human melanoma cell lines with known RB-pathway mutations: A2058 is RB-null, whereas WM2664 lacks p16^INK4a/Arf. See Shields, et al., Cancer Res., 67, 1502-1512 (2007). Cells were irradiated for indicated doses in a Rad Source Inc. (Alpharetta, Ga., United States of America) RS-2000 Biological Irradiator at 160 kV, 25.0 mA, at distance setting 1, with a dose rate of 103 rads/min.
BrdU Incorporation in vitro: Cells were plated and allowed to adhere overnight or at least 6 hours prior to adding CDK4/6 inhibitor at the indicated concentrations. Cells were grown for 24 hours in the presence of CDK4/6 inhibitor. 15 minutes prior to cell harvesting, 5-Bromo-2-deoxyuridine (BrdU) was added to the media at a final concentration of 10 μM. The cells were then washed, trypsinized, pelleted, fixed, permeabilized, stained, and measured on a flow cytometer as described in manufacturer directions for the BrdU Kit (BD Biosciences Pharmingen, San Diego, Calif., United States of America).
The proliferation of seven RB-deficient human small cell lung cancer lines was also resistant to the selective CDK4/6 inhibitors.

Another data set has as its system tHDF cells. As to the kind of experiment: Western blot of DNA damage response marker phospho-P53 after IR. Format: cell-based, human. The conditions noted are these: treatment prior to IR; PD0332991 100 nM for 24 hours, 6 Gy. As to the method:
FIG. 4A are images of Western blots of a DNA damage response marker (phospho-P53) in telomerized human diploid fibroblast (tHDF) cell lysates 3 hours after or 6 hours after a 6 gray (Gy) dose of ionizing radiation (IR) or following no IR, as indicated above the blot images. […] Actin western blot is shown as a loading control.
FIG. 4B is a bar graph showing the normalized phospho-P53 intensity in the telomerized human diploid fibroblast (tHDF) cells described in FIG. 4A.
Western Blots: Western blots were performed on cell lysates in NP-40 lysis buffer with protease inhibitors (Roche, Basel, Switzerland) and phosphatase inhibitors (Calbiochem, San Diego, Calif., United States of America) as previously described (see Ramsey et al., Cancer Res., 67, 4732-4741), using anti-p53-phospho-Ser15 (Cell Signaling Technology, Beverly, Mass., United States of America), Bax, p21, and actin-HRP (Santa Cruz Biotechnology, Inc., Santa Cruz, Calif., United States of America).
Background: A western blot detects proteins with antibodies after separation by electrophoresis.

For data set [2], the system named is peripheral blood lineages. As to the kind of experiment: Peripheral blood counts after TBI. The data set is classed as in vivo, mice. The conditions noted are these: for bone marrow protection: after IR; for protection/recovery of peripheral blood lineages: platelets, erythrocytes, myeloid cells, lymphocytes after IR. As to the method:
For comparison, data from mice that had not been exposed to IR is also shown (lightly shaded bars). […] Error bars show standard error of the mean.
Data was prepared from weekly complete blood counts on tail vein bleeds. Asterisk(s) indicate statistical significance determined by a 2-sided t-test. Error bars are +/− the standard error of the mean.
For TBI experiments, mice were irradiated using a ^137Cs source (AECL Gammacell 40 Irradiator, Atomic Energy of Canada Ltd, Mississauga, Ontario, Canada). Delivered doses were at or near the empirically determined LD90 of 7.5 Gy, consistent with prior studies. See Na Nakorn et al., J. Clin. Invest., 109, 1579-1585 (2002); Herodin et al., Blood, 101, 2609-2616 (2003); Uckun et al., Blood, 75, 638-645 (1990); and Wang et al., Proc. Natl. Acad. Sci., USA, 94, 14590-14595 (1997). Peripheral blood was collected using a tail vein nick for complete blood cells (CBCs) and analyzed with a HemaTrue analyzer (Heska Co., Loveland, Colo., United States of America).
The peripheral blood of animals after IR exposure was studied to confirm that the improved survival was due to protection of hematopoietic lineages.

The next data set deals with bone marrow cells. Description: Bone marrow cellularity, immunophenotypic frequency, apoptosis and viability. The conditions noted are these: 48 hour treatment. Format: in vivo, mice. The procedure: For HSPC proliferation experiments, mice received daily oral gavage with PD0332991 for 2 days with 1 mg BrdU intraperitoneal injection every 6 hours for 24 hours prior to sacrifice. BM-MNC harvest and immunophenotyping was performed using RBC lysis, biotin-conjugated Lin-panel incubation (Invitrogen Corporation, Carlsbad, Calif., United States of America), paramagnetic bead-conjugated straptavidin (Miltinyi Biotec, Bergisch Gladbach, Germany) incubation, and magnetic depletion using an AutoMACS (Miltinyi Biotec, Bergisch Gladbach, Germany). At least 2×10^6 Lin-depleted cells per mouse were incubated with fluorescently labeled antibodies against cell surface antigens used to identify hematopoietic progenitor subpopulations as previously described (see Passegue et al., J. Exp. Med., 202, 1599-1611 (2005); and Kiel et al., Cell, 121, 1109-1121 (2005): CD34-FITC, CD16/32-PacificBlue, IL7Ra-PE-Cy5, and cKit-APC-Alexa750 from eBiosciences, Inc. (San Diego, Calif., United States of America); Sca1-PE-Cy7, CD150-PE-Cy5, and CD48-PacificBlue from BioLegend (San Diego, Calif., United States of America); and Aqua Live/Dead viability dye (Invitrogen Corporation, Carlsbad, Calif., United States of America). Streptavidin-PE-TexasRed (Invitrogen Corporation, Carlsbad, Calif., United States of America) was used to confirm efficiency of lineage-depletion. After cell surface staining, cells were fixed, permeabilized, and stained with antibodies against Ki67-FITC, BrdU-APC, and caspase3-PE (BD Biosciences Pharmingen, San Diego, Calif., United States of America).
In all experiments, gating based on isotype controls was used as appropriate. Flow cytometry was performed using a CyAn ADP (Dako, Glostrup, Denmark) and analyzed with FlowJo software (Tree Star, Ashland, Oreg., United States of Ameria). For each bone marrow sample, a minimum of 200,000 cells were analyzed. For cell culture samples, a minimum of 20,000 cells were analyzed.
The effects on immunophenotypic HSPC frequency were validated by other methods.

“Also recorded” adds a separate entry of the source.

As to `O=C1NC(=O)c2c1c1c3ccccc3[nH]c1c1[nH]c3cc(Br)ccc3c21` [Compound 2BrIC, 2-bromo-12,13-dihydro-5H-indolo[2,3-a]pyrrolo[3,4]-carbazole-5,6-dione], the cell cycle effect entry in data set [1] is given as “strong, reversible G1-arrest”. Also, the “DNA damage response (phospho-P53) after IR” value with tHDF cells was “attenuated”. Further, the bone marrow protection entry in data set [2] is “marked bone marrow protection”.

Take `CC(=O)c1c(C)c2cnc(Nc3ccc(N4CCNCC4)cn3)nc2n(C2CCCC2)c1=O` [PD0332991, 6-acetyl-8-cyclopentyl-5-methyl-2-(5-piperazin-1-yl-pyridin-2-ylamino)-8H-pyrido-[2,3-d]-pyrimidin-7-one]: the cell cycle effect entry in data set [1] is listed as “strong, reversible G1-arrest”. Moreover, the “DNA damage response (phospho-P53) after IR” value in the data set on tHDF cells is listed as “attenuated”. Besides, in the data set with bone marrow cells, the “HSC and MPP frequencies” value was “relative increase; also recorded: relative enrichment”; the “Lin− or HSC apoptosis or viability” value is on record as “without altering”; the “absolute number of lineage negative cells” value is “did decrease”; the “frequency of oligopotent progenitors (Lin−cKit+Sca1−)” value is “declined”. Moreover, the total marrow cellularity entry with bone marrow cells is “did not decrease”. In addition, in data set [2], the bone marrow protection entry was “marked bone marrow protection” and the “protection/recovery of peripheral blood lineages” value is given as “beneficial effect on the recovery of all peripheral blood lineages”. The anemia and thrombocytopenia entry in data set [2] (lethally irradiated mice (7.5 Gy)) is recorded as “significantly ameliorated”. For the same molecule, the “protection/recovery of peripheral blood lineages” value in data set [2] (listed as PD 0332991) is reported as “protects all lineages of blood cells”. Moreover, the “blood count nadirs and recovery” value in data set [2] (sub-lethal dose of TBI (6.5 Gy)) was “diminished count nadirs and caused more rapid count recovery”.
